Values after ≈ are worked out from the molar mass of the structure shown.
What was measured:
[1] = system: Pseudomonas aeruginosa (Pae, PAWT, ATCC #27853); assay: MIC against Pseudomonas aeruginosa reference strain PAWT; type: cell-based; conditions: Pseudomonas aeruginosa wild type PAWT
Text: (§1) For evaluation of efficacy, we assembled panels of representative gram-negative pathogens, including Pseudomonas aeruginosa (Pae, PAWT, ATCC #27853), Klebsiella pneumoniae (Kpn, KPWT, ATCC #700603), Acinetobacter baumannii (Aba, ABWT, ATCC #BAA-747) and Escherichia coli (Eco, ECWT, ATCC #25922). These reference strains are useful indicator organisms to characterize compound activity against bacteria from a pathogenic genus in the absence of multiple resistance mechanisms. Two strains (PAWT and ECWT) are reference strains cited within the Clinical and Laboratory Standards Institute (CLSI) Standards for susceptibility testing by Minimum Inhibitory Concentration (MIC) (SXPS2) and are well suited for quality control. ABWT and ECWT are widely susceptible to aminoglycoside antibiotics, whereas PAWT and KPWT harbor a single aminoglycoside-modifying enzyme (AGME) that targets 4,6-substituted-2-deoxystreptamine AGs. […]

[2] = system: Klebsiella pneumoniae (Kpn, KPWT, ATCC #700603); assay: MIC against Klebsiella pneumoniae reference strain KPWT; type: cell-based; conditions: for MIC KPWT: Klebsiella pneumonia KPWT, Table 5 (unit not given), in µg/mL
Text: as §1, with “These reference strains are useful indicator organisms to characterize compound activity against bacteria from a pathogenic genus in the absence of multiple resistance mechanisms.” left out

[3] = system: Acinetobacter baumannii (Aba, ABWT, ATCC #BAA-747); assay: MIC against Acinetobacter baumannii reference strain ABWT; type: cell-based
Text: as §1

[4] = system: Pseudomonas aeruginosa PR1 (clinical isolate with intermediate aminoglycoside resistance); assay: MIC against Pseudomonas aeruginosa clinical isolate PR1; type: cell-based; conditions: Pseudomonas aeruginosa resistant strain PR1
Text: (§2) Pseudomonas aeruginosa is a prominent nosocomial pathogen. In addition to intrinsic antibiotic resistance to several antibiotics, Pseudomonas has acquired multiple additional mechanisms of resistance. As a result, therapeutic options for the treatment of infections caused by Pseudomonas aeruginosa are limited. We acquired clinical isolates of Pseudomonas aeruginosa (Micromyx LLC, Kalamazoo, Mich.), and used this panel to test compounds for Pseudomonicidal activity. […] For each strain and antibiotic, the mechanism(s) of resistance was inferred from the resistance profile. The presence of specific AGMEs was confirmed by colony PCR.

[5] = system: Pseudomonas aeruginosa PR2 (clinical isolate with intermediate aminoglycoside resistance); assay: MIC against Pseudomonas aeruginosa clinical isolate PR2; type: cell-based; conditions: Pseudomonas aeruginosa resistant strain PR2
Text: as §2

[6] = system: Pseudomonas aeruginosa PR3 (high-level, efflux-mediated, pan-aminoglycoside resistance); assay: MIC against Pseudomonas aeruginosa clinical isolate PR3; type: cell-based; conditions: for MIC PR3: Pseudomonas aeruginosa resistant strain PR3
Text: as §2

[7] = system: more than fifty resistant contemporary clinical isolates of Pseudomonas aeruginosa; assay: MIC90 against panel of resistant clinical isolates of Pseudomonas aeruginosa; type: cell-based
Text: To assess this, a panel of more than fifty resistant contemporary clinical isolates of Pseudomonas aeruginosa were obtained from multiple sources including JMI Laboratories (North Liberty, Iowa), Pfizer (Groton, Conn.), Micromyx (Kalamazoo, Mich.), Dr. J. Chow (Wayne State University). Strains were characterized for resistance to a wide variety of classes of antibiotics including aminoglycosides, β-lactams and fluoroquinolones. […] This reflects the difficulty in treating clinical Pseudomonas aeruginosa infections. […] Using this stringent panel, we tested a subset of compounds of the invention (Table 4).

[8] = system: Klebsiella pneumoniae KR1 (clinical isolate with intermediate aminoglycoside resistance); assay: MIC against Klebsiella pneumoniae clinical isolate KR1; type: cell-based; conditions: Klebsiella pneumonia KR1; in µg/mL
Text: (§3) Klebsiella pneumoniae (Kpn) and Escherichia coli (Eco) are gram-negative (like Pae), enteric pathogens with increasing clinical relevance. Many clinical isolates of Kpn and Eco harbor extended-spectrum beta-lactamases and are no longer sensitive to most beta-lactam antibiotics. We acquired clinical isolates of Klebsiella pneumoniae and Escherichia coli (Micromyx LLC, Kalamazoo, Mich.) and used this panel to test compounds for anti-enteric activity.

[9] = system: Klebsiella pneumoniae KR2 (clinical isolate with intermediate aminoglycoside resistance); assay: MIC against Klebsiella pneumoniae clinical isolate KR2; type: cell-based; conditions: Klebsiella pneumonia KR2
Text: as §3

[10] = system: Klebsiella pneumoniae KR3 (clinical isolate possessing high-level aminoglycoside resistance); assay: MIC against Klebsiella pneumoniae clinical isolate KR3; type: cell-based; conditions: Klebsiella pneumonia KR3; in µg/mL
Text: as §3

[11] = system: fifty resistant contemporary clinical isolates of Klebsiella pneumoniae; assay: MIC90 against panel of resistant clinical isolates of Klebsiella pneumoniae; type: cell-based; conditions: for MIC90 Klebsiella pneumonia: stringent panel of resistant clinical isolates, Table 5
Text: Using this stringent Klebsiella pneumoniae panel, we tested a subset of compounds of the invention.

panel of E. coli strains = assay: MIC90 against a panel of E. coli strains; type: cell-based; conditions: in µg/mL
[12] = system: Acinetobacter baumannii AB1; assay: MIC against Acinetobacter baumannii clinical isolate AB1; type: cell-based
Text: (§4) Acinetobacter baumannii is another clinically important and very challenging gram negative pathogen. Members of the Acinetobacter genus, including baumannii, have a remarkable ability to upregulate and acquire resistance determinants. Coupled with its ability to survive for prolonged periods in a hospital environment, A. baumannii is an emerging threat for healthcare institutions globally. We acquired clinical isolates of Acinetobacter baumannii and used this panel to test compounds for anti-Acinetobacter activity. We first tested reference AGs against our panel of Aba strains.

[13] = system: Acinetobacter baumannii AB2; assay: MIC against Acinetobacter baumannii clinical isolate AB2; type: cell-based
Text: as §4

[14] = system: Acinetobacter baumannii AB3; assay: MIC against Acinetobacter baumannii clinical isolate AB3; type: cell-based
Text: as §4

[15] = system: fifty resistant contemporary clinical isolates of Acinetobacter baumannii; assay: MIC90 against panel of resistant clinical isolates of Acinetobacter baumannii; type: cell-based
Text: As in the case of Pseudomonas aeruginosa and Klebsiella pneumoniae, we considered whether the SAR observed against select Acinetobacter baumannii strains 1, 2 or 3 was indicative of general potency. […] Using this stringent Acinetobacter baumannii panel, we tested a subset of compounds of the invention.

[16] = system: Escherichia coli (Eco, ECWT, ATCC #25922); assay: MIC against Escherichia coli reference strain ECWT; type: cell-based; conditions: ATCC25922
Text: For evaluation of efficacy, we assembled panels of representative gram-negative pathogens, including Pseudomonas aeruginosa (Pae, PAWT, ATCC #27853), Klebsiella pneumoniae (Kpn, KPWT, ATCC #700603), Acinetobacter baumannii (Aba, ABWT, ATCC #BAA-747) and Escherichia coli (Eco, ECWT, ATCC #25922). These reference strains are useful indicator organisms to characterize compound activity against bacteria from a pathogenic genus in the absence of multiple resistance mechanisms. Two strains (PAWT and ECWT) are reference strains cited within the Clinical and Laboratory Standards Institute (CLSI) Standards for susceptibility testing by Minimum Inhibitory Concentration (MIC) (SXPS2) and are well suited for quality control. ABWT and ECWT are widely susceptible to aminoglycoside antibiotics, whereas PAWT and KPWT harbor a single aminoglycoside-modifying enzyme (AGME) that targets 4,6-substituted-2-deoxystreptamine AGs.

P. aeruginosa 6294 MLP-3 = assay: Rat neutropenic thigh model; type: in vivo
Protocol: The compound identified as SXP 2523 was selected for further testing in vivo. Twenty male Sprague Dawley rats were pre-treated with cyclophosphamide to render them neutropenic on day −4 and day −1 with 100 mg/kg and 75 mg/kg respectively. Rats were infected with P. aeruginosa 6294 MLP-3, via injection into the right thigh muscle of 0.1 mL per rat. Two hours post infection rats were treated intravenously with either SXP-2523 or amikacin in a total dose of 10 or 60 mg/kg, respectively. The test article and control agent were delivered at 2, 4, and 6 hours post infection. Five rats were treated with each drug concentration. One group of five rats was euthanized at initiation of treatment and thigh CFUs were processed (T=Rx). Twenty-four hours post infection rats were euthanized by CO2 inhalation. The right thigh muscles of the rats were aseptically removed, weighed, homogenized, serially diluted, and plated on MacConkey medium. The plates were incubated overnight at 37° C. in 5% CO2. CFU per gram of thigh was calculated by enumerating the plated colonies then adjusting for serial dilutions and the weight of the thigh. The following table 7 summarizes the results Table 6: […]

[17] = system: resistant strain of P. aeruginosa (P. aeruginosa 6294 MLP-3); assay: Rat neutropenic thigh model against resistant P. aeruginosa; type: in vivo; conditions: resistant P. aeruginosa
Protocol: The compound identified as SXP 2523 was further tested in vivo against a resistant strain of P. aeruginosa. Twenty male Sprague Dawley rats were rendered neutropenic by treatment with cyclophosphamide on day −4 and day −1 with 100 mg/kg and 75 mg/kg, respectively. Rats were infected with P. aeruginosa 6294 MLP-3, via injection into the right thigh muscle of 0.1 mL per rat. Two hours post infection rats were treated intravenously with either SXP-2523 or amikacin in a total dose of 10 or 60 mg/kg, respectively. The test article and control agent were delivered at 2, 4, and 6 hours post infection. Five rats were treated with each drug concentration. One group of five rats were euthanized at initiation of treatment and thigh CFUs were determined (T=Rx). Twenty-four hours post infection; rats were euthanized by CO2 inhalation. The right thigh muscles of the rats were aseptically removed, weighed, homogenized, serially diluted, and plated on BHI medium. The plates were incubated overnight at 37° C. in 5% CO2. CFU per gram of thigh was calculated by enumerating the plated colonies then adjusting for serial dilutions and the weight of the thigh.

[18] = system: Klebsiella pneumoniae screening panel KPWT, KR1, KR2, KR3; assay: Klebsiella pneumoniae screening panel (KPWT, KR1, KR2, KR3), reference AGs; type: cell-based
Text: as §3

[19] = Log CFU/thigh, total dose 10 mg/kg SXP-2523 or 60 mg/kg amikacin iv
[20] = neutropenic male Sprague Dawley rats, iv at 2, 4, 6 h post infection, total dose 10 mg/kg SXP-2523 or 60 mg/kg amikacin, 24 h post infection

Compound	MIC PAWT [1] [µg/mL]	MIC KPWT [2]	MIC ABWT [3] [µg/mL]	MIC PR1 [4] [µg/mL]	MIC PR2 [5] [µg/mL]	MIC PR3 [6] [µg/mL]	MIC90 Pseudomonas aeruginosa [7] [µg/mL]	MIC KR1 [8]	MIC KR2 [9]	MIC KR3 [10]	MIC90 Klebsiella pneumonia [11] [µg/mL]	MIC90 E. coli (panel of E. coli strains)	MIC AB1 [12] [µg/mL]	MIC AB2 [13] [µg/mL]	MIC AB3 [14] [µg/mL]	MIC90 Acinetobacter baumannii [15] [µg/mL]	further results
NCCC(O)C(=O)NC1CC(N)C(OC2OC(CN)C(O)CC2N)C(F)C1OC1OC(CNCC2CNC2)C(O)C(N)C1O (stereo not drawn) [SXP 2525]	0.25 to 0.5	0.5	0.5 (≈ 0.783 µM)	8 (≈ 12.5 µM)	1 (≈ 1.57 µM)	8 (≈ 12.5 µM)	4 (≈ 6.26 µM)	1	0.5	1	1 (≈ 1.57 µM)	2	2 to 4	1 (≈ 1.57 µM)	8 (≈ 12.5 µM)	2 (≈ 3.13 µM)	–
NCCC(O)C(=O)NC1CC(N)C(OC2OC(CN)C(O)CC2N)C(F)C1OC1OC(CNC2CNC2)C(O)C(N)C1O (stereo not drawn) [SXP 2554]	0.25 (≈ 0.4 µM)	0.125	0.25 (≈ 0.4 µM)	2 (≈ 3.2 µM)	0.5 (≈ 0.8 µM)	8 (≈ 12.8 µM)	4 (≈ 6.4 µM)	0.25	0.125	0.25-0.5	0.5 (≈ 0.8 µM)	2	0.5 (≈ 0.8 µM)	0.25 to 0.5	2 to 4	2 (≈ 3.2 µM)	–
NCC[C@H](O)C(=O)N[C@@H]1C[C@H](N)[C@@H](O[C@H]2O[C@H](CN)[C@@H](O)[C@H](O)[C@H]2O)[C@H](O)[C@H]1O[C@H]1O[C@H](CO)[C@@H](O)[C@H](N)[C@H]1O [amikacin]	–	–	–	–	–	–	–	–	–	–	–	–	–	–	–	–	MIC ([1]; ATCC27853): 1 to 2 µg/mL (≈ 1.71 to 3.42 µM); MIC ([2]; ATCC700603, Klebsiella pneumoniae KPWT, Table 2): 1 µg/mL (≈ 1.71 µM); MIC ([3]; ATCCBAA747): 1 µg/mL (≈ 1.71 µM); MIC [16]: 2 to 4 µg/mL (≈ 3.42 to 6.83 µM); MIC [4]: 8 µg/mL (≈ 13.7 µM); MIC [5]: 8 to 16 µg/mL (≈ 13.7 to 27.3 µM); MIC ([6]; Pseudomonas aeruginosa, read-out: MIC PR3): 64 µg/mL (≈ 109 µM); MIC90 ([7]; Pseudomonas aeruginosa): ≥ 64 µg/mL; MIC90 ([11]; Klebsiella pneumoniae, fifty resistant contemporary clinical isolates, reference antibiotics): ≥ 64 µg/mL; Change from 24 hr. control (P. aeruginosa 6294 MLP-3; [19]): −1.49; Change from T = Rx controls (P. aeruginosa 6294 MLP-3; [19]): 1.59; Log CFU/thigh (P. aeruginosa 6294 MLP-3; [20]): 5.77 Log CFU/thigh; Change from 24 hr. control [17, 19]: −2.73; Change from T = Rx controls [17, 19]: 0.43; Log CFU/thigh [17, 20]: 3.92 Log CFU/thigh; potency against Klebsiella pneumoniae test panel [18]: potency against 3 of 4 strains tested

Source: patent US8586552B2, “4,6-substituted 2,5-dideoxystreptamine aminoglycoside antibiotics” (SelectX Pharmaceuticals, Inc., priority 2012, dated 2013)
